Measured values published in ChEMBL document CHEMBL5032529, “Synthesis and evaluation of tetrahydroisoquinoline derivatives against Trypanosoma brucei rhodesiense” (Eur J Med Chem, 2021).

What was measured:
Vero = experiment: Cytotoxicity against African green monkey Vero cells assessed as reduction in cell viability measured after 72 hrs by SRB assay; type: cell-based; conditions: Chlorocebus sabaeus
[1] = tested on: Trypanosoma brucei rhodesiense; experiment: Antitrypanosomal activity against Trypanosoma brucei rhodesiense STIB900 assessed as parasite growth inhibition measured after 72 hrs by alamar blue dye based spectrofluorimetric analysis; type: functional, organism-based; conditions: STIB900, 72 h
[2] = Selectivity index, ratio of IC50 for cytotoxicity against African green monkey Vero cells to IC50 for antitrypanosomal activity against Trypanosoma brucei rhodesiense STI B900; type: toxicity, cell-based; conditions: read-out: Ratio IC50

Molecule `CC1(C)N=C(N)N=C(N)N1OCCCOc1cc(Cl)c(Cl)cc1Cl` has an IC50 (Vero) of over 10 µM, an IC50 [1] of 0.25 µM and a selectivity ratio [2] of over 40.
`CN1Cc2ccc(OCc3ccccc3)cc2[C@@H](OCc2ccccc2)C1` gave an IC50 (Vero) of 23.5 µM, an IC50 [1] of 2.8 µM and a selectivity ratio [2] of 8.4.
With `Oc1cccc2c1CNCC2O` (stereo unspecified) the IC50 (Vero) was over 100 µM and the IC50 [1] was over 100 µM.
For `CN1Cc2ccc(OCCCn3ccnc3[N+](=O)[O-])cc2[C@@H](O)C1`, the IC50 (Vero) was over 50 µM, the IC50 [1] was 21.7 µM and the selectivity ratio [2] was over 2.3.
Work on `CN1Cc2ccc(OCc3ccc(Oc4ccc(F)cc4)cc3)cc2[C@@H](O)C1` yielded an IC50 (Vero) of 5.6 µM, an IC50 [1] of 2.7 µM and a selectivity ratio [2] of 2.1.
Work on `CN1CCc2cc(OCc3ccc(-c4ccccc4)cc3)ccc2C1` yielded an IC50 (Vero) of 16.5 µM, an IC50 [1] of 2.3 µM and a selectivity ratio [2] of 7.2.
With `COc1cccc2c1CN(C)C[C@@H]2O` the IC50 (Vero) was over 100 µM and the IC50 [1] was over 100 µM.
For `CCN1Cc2ccc(O)cc2C(O)C1` (stereo unspecified), the IC50 (Vero) was over 100 µM and the IC50 [1] was over 100 µM.
`CN1CCc2cc(OCc3ccccc3)ccc2C1` showed an IC50 (Vero) of over 100 µM, an IC50 [1] of 4.4 µM and a selectivity ratio [2] of over 22.7.
For `COc1ccc(COc2ccc3c(c2)[C@@H](O)CN(C)C3)cc1`, the IC50 (Vero) was over 50 µM, the IC50 [1] was 17.5 µM and the selectivity ratio [2] was over 2.9.
`CN1Cc2ccc(O)cc2[C@@H](OCc2ccc(-c3ccccc3)cc2)C1` gave an IC50 (Vero) of over 50 µM, an IC50 [1] of 6.4 µM and a selectivity ratio [2] of over 7.8.
`CN1Cc2ccc(OCc3ccccc3)cc2[C@@H](O)C1` showed an IC50 (Vero) of over 100 µM, an IC50 [1] of 25.6 µM and a selectivity ratio [2] of over 3.9.
Molecule `CN1Cc2ccc(OCc3ccc(Oc4ccccc4)cc3)cc2[C@@H](O)C1` has an IC50 (Vero) of 3.4 µM, an IC50 [1] of 2.7 µM and a selectivity ratio [2] of 1.3.
Work on `Cc1ccccc1COc1ccc2c(c1)[C@@H](O)CN(C)C2` yielded an IC50 (Vero) of over 100 µM, an IC50 [1] of 20.7 µM and a selectivity ratio [2] of over 4.8.
Molecule `CN1Cc2ccc(O)cc2[C@@H](OCCC2CCCCC2)C1` has an IC50 (Vero) of over 50 µM, an IC50 [1] of 19.1 µM and a selectivity ratio [2] of over 2.6.
`Oc1ccc2c(c1)C(O)CNC2` (stereo unspecified) gave an IC50 (Vero) of over 100 µM and an IC50 [1] of over 100 µM.
`CN1Cc2ccc(OCc3ccc(Br)cc3)cc2[C@@H](O)C1` showed an IC50 (Vero) of 37 µM, an IC50 [1] of 2.5 µM and a selectivity ratio [2] of 14.8.
Molecule `CN1Cc2ccc(OCCC3CCCCC3)cc2[C@@H](O)C1` has an IC50 (Vero) of over 50 µM, an IC50 [1] of 2.5 µM and a selectivity ratio [2] of over 20.
`COc1cccc(-c2cccc(COc3ccc4c(c3)[C@@H](O)CN(C)C4)c2)c1` showed an IC50 (Vero) of 24.3 µM, an IC50 [1] of 2.9 µM and a selectivity ratio [2] of 8.4.
`CN(C)CCOc1ccc2c(c1)[C@@H](O)CN(C)C2` gave an IC50 (Vero) of over 50 µM and an IC50 [1] of over 50 µM.
Work on `CN1CCc2cc(OCCC3CCCCC3)ccc2C1` yielded an IC50 (Vero) of 25 µM, an IC50 [1] of 2.9 µM and a selectivity ratio [2] of 8.6.
Work on `CN1Cc2ccc(OCc3ccc(-c4ccc5ccccc5c4)cc3)cc2[C@@H](O)C1` yielded an IC50 (Vero) of 0.31 µM, an IC50 [1] of 0.24 µM and a selectivity ratio [2] of 1.3.
With `CN1Cc2ccc(OCc3ccc([N+](=O)[O-])cc3)cc2[C@@H](O)C1` the IC50 (Vero) was over 50 µM, the IC50 [1] was 16.9 µM and the selectivity ratio [2] was over 3.
Work on `CN1Cc2ccc(OCc3cccc(Br)c3)cc2[C@@H](O)C1` yielded an IC50 (Vero) of 60.3 µM, an IC50 [1] of 2.2 µM and a selectivity ratio [2] of 27.4.
Molecule `CN1Cc2ccc(OCCCN3CCOCC3)cc2[C@@H](O)C1` has an IC50 (Vero) of over 50 µM, an IC50 [1] of 27.6 µM and a selectivity ratio [2] of over 1.8.
In the case of `CCCCCCCCCCCCOc1ccc2c(c1)[C@@H](O)CN(C)C2`, the IC50 (Vero) is reported as 18.3 µM, the IC50 [1] is reported as 2.4 µM and the selectivity ratio [2] is reported as 7.6.
Molecule `CN1Cc2ccc(O)cc2[C@@H](OCc2ccccc2)C1` has an IC50 (Vero) of over 50 µM and an IC50 [1] of over 50 µM.
For `CN1Cc2ccc(OCCCc3ccccc3)cc2[C@@H](O)C1`, the IC50 (Vero) was over 50 µM, the IC50 [1] was 18.7 µM and the selectivity ratio [2] was over 2.7.
With `CN1Cc2ccc(OCCc3ccccc3)cc2[C@@H](O)C1` the IC50 (Vero) was over 50 µM, the IC50 [1] was 17.9 µM and the selectivity ratio [2] was over 2.8.
For `CN1Cc2ccc(OCC3CCNCC3)cc2[C@@H](O)C1`, the IC50 (Vero) was over 100 µM and the IC50 [1] was over 100 µM.
With `CN1Cc2ccc(OCCCn3cnc([N+](=O)[O-])c3)cc2[C@@H](O)C1` the IC50 (Vero) was over 50 µM and the IC50 [1] was over 50 µM.
For `CN1Cc2ccc(OCCCN3CCNCC3)cc2[C@@H](O)C1`, the IC50 (Vero) was over 100 µM and the IC50 [1] was over 100 µM.
Molecule `CCCN1Cc2ccc(O)cc2C(O)C1` (stereo unspecified) has an IC50 (Vero) of over 100 µM and an IC50 [1] of over 100 µM.
`CN1Cc2c(O)cccc2[C@@H](O)C1` showed an IC50 (Vero) of over 100 µM and an IC50 [1] of over 100 µM.
Molecule `CN1Cc2ccc(OCc3cccc(-c4ccc(Cl)cc4)c3)cc2[C@@H](O)C1` has an IC50 (Vero) of 27.3 µM, an IC50 [1] of 2.9 µM and a selectivity ratio [2] of 9.4.
For `CN1Cc2ccc(OCc3ccc(-c4cccc(Cl)c4)cc3)cc2[C@@H](O)C1`, the IC50 (Vero) was 25.5 µM, the IC50 [1] was 2.8 µM and the selectivity ratio [2] was 9.1.
In the case of `CCCCCCCCCCCC1c2ccc(O)cc2[C@@H](O)CN1C` (stereo partly specified), the IC50 [1] is reported as 0.39 µM.
`OC1CCCc2ccc(OCc3ccc(-c4ccccc4)cc3)cc21` (stereo unspecified) showed an IC50 (Vero) of over 100 µM and an IC50 [1] of over 100 µM.
In the case of `CN1CCc2cc(OCCCN3CCOCC3)ccc2C1`, the IC50 (Vero) is reported as over 50 µM, the IC50 [1] is reported as 25.9 µM and the selectivity ratio [2] is reported as over 1.9.
With `CN1Cc2ccc(OC(c3ccccc3)(c3ccccc3)c3ccccc3)cc2[C@@H](O)C1` the IC50 (Vero) was 87.9 µM, the IC50 [1] was 20.8 µM and the selectivity ratio [2] was 4.2.
In the case of `COc1cccc(-c2ccc(COc3ccc4c(c3)[C@@H](O)CN(C)C4)cc2)c1`, the IC50 (Vero) is reported as 10.8 µM, the IC50 [1] is reported as 2.8 µM and the selectivity ratio [2] is reported as 3.9.
Work on `COCCOCOc1ccc2c(c1)[C@@H](O)CN(C)C2` yielded an IC50 (Vero) of over 50 µM and an IC50 [1] of over 50 µM.
Molecule `COc1ccc2c(c1)[C@@H](O)CN(C)C2` has an IC50 (Vero) of over 100 µM and an IC50 [1] of over 100 µM.
Work on `Oc1ccc2c(c1)C(O)CCC2` (stereo unspecified) yielded an IC50 (Vero) of over 100 µM and an IC50 [1] of over 100 µM.
Molecule `Cc1cccc(COc2ccc3c(c2)[C@@H](O)CN(C)C3)c1` has an IC50 (Vero) of over 50 µM, an IC50 [1] of 20.3 µM and a selectivity ratio [2] of over 2.5.
For `CN1Cc2ccc(O[Si](c3ccccc3)(c3ccccc3)C(C)(C)C)cc2[C@@H](O)C1`, the IC50 (Vero) was 19.1 µM, the IC50 [1] was 2.8 µM and the selectivity ratio [2] was 6.8.
Work on `CN1Cc2ccc(OCc3cccnc3)cc2[C@@H](O)C1` yielded an IC50 (Vero) of over 50 µM and an IC50 [1] of over 50 µM.
Work on `CN1Cc2ccc(OCc3ccc(-c4ccccc4)cc3)cc2[C@@H](O)C1` yielded an IC50 (Vero) of 23 µM, an IC50 [1] of 2.9 µM and a selectivity ratio [2] of 7.9.
`CN1Cc2ccc(OCC3CCCCC3)cc2[C@@H](O)C1` gave an IC50 (Vero) of 65.6 µM, an IC50 [1] of 2.8 µM and a selectivity ratio [2] of 23.4.
`CN1Cc2ccc(OCc3ccc(-c4ccccc4)cc3)cc2[C@@H](OCc2ccc(-c3ccccc3)cc2)C1` gave an IC50 (Vero) of over 10 µM, an IC50 [1] of 2.8 µM and a selectivity ratio [2] of over 3.6.
`CN1Cc2ccc(OCCOc3ccccc3)cc2[C@@H](O)C1` showed an IC50 (Vero) of over 100 µM, an IC50 [1] of 17.9 µM and a selectivity ratio [2] of over 5.6.
`CN1CCc2cc(O)ccc2C1` gave an IC50 (Vero) of over 100 µM and an IC50 [1] of over 100 µM.
With `CN1Cc2ccc(OCc3ccc(-c4ccc(Cl)cc4)cc3)cc2[C@@H](O)C1` the IC50 (Vero) was 21.7 µM, the IC50 [1] was 0.28 µM and the selectivity ratio [2] was 77.5.
`CN1Cc2ccc(OCCC3CCCCC3)cc2[C@@H](OCCC2CCCCC2)C1` showed an IC50 (Vero) of 23.6 µM, an IC50 [1] of 2.3 µM and a selectivity ratio [2] of 10.3.
`CN1Cc2ccc(OCc3ccc(-c4ccc(-c5ccccc5)cc4)cc3)cc2[C@@H](O)C1` gave an IC50 (Vero) of 0.28 µM, an IC50 [1] of 0.28 µM and a selectivity ratio [2] of 1.
Molecule `CN1Cc2ccc(OCc3ccc(-c4ccc(F)cc4)cc3)cc2[C@@H](O)C1` has an IC50 (Vero) of 33.8 µM, an IC50 [1] of 1.4 µM and a selectivity ratio [2] of 24.1.
With `Cc1c2ccncc2c(C)c2c1[nH]c1ccccc12` [ELLIPTECINE] the IC50 (Vero) was 2.4 µM.
Molecule `N=C(N)c1ccc(OCCCCCOc2ccc(C(=N)N)cc2)cc1` [PENTAMIDINE] has an IC50 [1] of 0.00707 µM.
